Reference: paper PMC6892276 (European Journal of Pharmaceutical Sciences, 2019)

Key:
[1] = CLint in cryopreserved mouse hepatocyte suspensions; type: in vitro ADME; conditions: ICR/CD-1, cryopreserved hepatocyte suspensions, pH 7.4, female
Protocol: Cells were stored in the vapour phase of liquid nitrogen and thawed as per the supplier's instructions (rapid thawing at 37 °C, followed by centrifugation at 50 ×g for 5 min in thawing medium). Hepatocytes were re-suspended in a small volume of incubation medium (WME buffered with HEPES (final concentration 24 mM) adjusted to pH 7.4). Cell density was estimated using a haemocytometer and light microscope and viability determined according to the trypan blue exclusion method; cells were subsequently diluted to the required concentration in incubation medium. […]
(§1) For the purpose of CLint determination, samples were analysed using an Agilent 1290 Infinity ultra high-performance liquid chromatography (UHPLC) system coupled to an Agilent 6520 Quadrupole Time-of-flight mass spectrometer (Agilent Technologies, Stockport, UK). […]
(§2) In vitro data (parent compound LC-MS response) was fitted to a non-linear single exponential model using the software GraphPad Prism (v6.07, GraphPad Software, Inc., La Jolla, USA) to determine the elimination rate constant (k). CLint in hepatocytes and liver microsomes was calculated using Eqs. […]

[2] = CLint in dog liver microsomes; type: in vitro ADME; conditions: Beagle, 1 mg/ml, NADPH
Protocol: (§3) All incubations of subcellular fractions and recombinant enzymes were conducted at 37 °C and 800 rpm using a Hamilton Microlab Star liquid handling workstation (Hamilton Robotics (Bonaduz, Switzerland)).
(§4) Prior to initiation of the reaction by the addition of NADPH (final concentration 1 mM), an aliquot was removed from each incubation and quenched in ice cold methanol containing internal standard (referred to as T0). NADPH was subsequently added to this solution for matrix matching. The remaining reaction (with addition of NADPH) was allowed to proceed for 60 min. At 0.5, 5, 15, 30 and 60 min aliquots were sampled and quenched as above. Incubations were conducted in singlicate; control incubations (substituting PBS for NADPH) were conducted simultaneously.
as §1, §2

[3] = CLint in minipig liver microsomes; type: in vitro ADME; conditions: Gottingen, 1 mg/ml, NADPH
Protocol: as §3, §4, §1, §2

[4] = CLint in rat liver microsomes; type: in vitro ADME; conditions: Sprague Dawley, female, 1 mg/ml, NADPH
Protocol: as §3, §4, §1, §2

[5] = Protein binding in rCYP (Rapid Equilibrium Dialysis); type: in vitro ADME; conditions: human, control rCYP 100 pmol/ml, dialysis 4 h at 37 °C, read-out: fuCYP (fraction unbound in rCYP)
Protocol: Samples were removed, matrix matched and quenched with methanol containing internal standard; further processing is as described in Section 2.6.
The fraction unbound (fu) in HLM/rCYP was calculated using Eq. (5).(5) fu=1/1+1/PARreceiver/PARdonor−1 where PAR = Peak Area Ratio of analyte/internal standard.

hERG = system: hERG; design: method as in Bavetsias et al., 2012; conditions: ref Bavetsias et al., 2012; read-out: hERG blockade IC50; cited from earlier work
[6] = design: method as in Bavetsias et al., 2012; conditions: mouse and rat; ref Bavetsias et al., 2012; cited from earlier work
CYP1A2 = system: CYP1A2; design: method as in Bavetsias et al., 2012; conditions: ref Bavetsias et al., 2012; read-out: CYP1A2 inhibition IC50; cited from earlier work
CYP2C9 = system: CYP2C9; design: method as in Bavetsias et al., 2012; conditions: ref Bavetsias et al., 2012; read-out: CYP2C9 inhibition IC50; cited from earlier work
CYP2C19 = system: CYP2C19; design: method as in Bavetsias et al., 2012; conditions: ref Bavetsias et al., 2012; read-out: CYP2C19 inhibition IC50; cited from earlier work
CYP2D6 = system: CYP2D6; design: method as in Bavetsias et al., 2012; conditions: ref Bavetsias et al., 2012; read-out: CYP2D6 inhibition IC50; cited from earlier work
[7] = system: MV4-11 (human FLT3-ITD positive AML); design: method as in Bavetsias et al., 2012; conditions: ref Bavetsias et al., 2012; cited from earlier work
MV4-11 xenograft = system: MV4-11 xenograft; design: method as in Bavetsias et al., 2012; conditions: MV4-11 xenograft mouse model; ref Bavetsias et al., 2012; cited from earlier work

## Cc1nn(C)cc1-c1nc2c(N3CCN(Cc4ccc(Cl)cc4)CC3)c(Cl)cnc2[nH]1 [CCT241736, 6-Chloro-7-(4-(4-chlorobenzyl)piperazin-1-yl)-2-(1,3-dimethyl-1Hpyrazol-4-yl)-3H-imidazo[4,5-b] pyridine]
[1]
  hepatocyte CLint at 1 μM: […]
[2]; female
  microsomal CLint at 1 μM: […]
[2]; male
  microsomal CLint at 1 μM: 7.4 ± 1.4 µL/min/mg
[3]; female
  microsomal CLint at 1 μM: 5.1 ± 1.1 µL/min/mg
[3]; male
  microsomal CLint at 1 μM: […]
[4]
  microsomal CLint at 1 μM: 2.7 ± 1.8 µL/min/mg
[5]
  fraction unbound at 4 h, 1 μM: 0.0094
hERG
  IC50: […]
[6]
  oral bioavailability: […]
CYP1A2
  IC50: […]
CYP2C9
  IC50: […]
CYP2C19
  IC50: […]
CYP2D6
  IC50: […]
[7]
  anti-proliferative activity: anti-proliferative activity
MV4-11 xenograft
  inhibition of tumour growth: strong inhibition of tumour growth
